Measurements as given in patent US8217068B2, “Compound with anesthetics activity, methods for its production and pharmaceutical compositions comprising the same” (Universidade Federal de Pernambuco—UFPE, priority 2007, dated 2012).

Tests used:
Assay type in all cases: in vivo
male Swiss mice [1] = experiment: Isobolographic analysis of the combination with morphine (analgesic effect, DE50); conditions: i.p., combination of fractions of DE50 of each drug, FIG. 3
Method: First, we determined the dose of morphine that cause 50% of maximal analgesic effect (DE50) after administration (i.p.) in incremental doses. […] Fraction of association of DE50 of each drug was administrated and the DE50 of combination was determined. A isobolographic analysis (FIG. 3) using the DE50 of each drug and of the combination was performed using a computer program (Life Sci 1989 45: 947-961) to determine the type of interaction.

Wistar male rats [2] = experiment: Hot Plate analgesic effect after intrathecal administration
Method: Stimulation of alpha-2 adrenoceptors distributed at spinal cord cause analgesia. […] Thus, the analgesic activity of LPSF-PT-31, GIRSUPAN was investigated after intrathecal administration. Wistar male rats weighting 240-280 grams were positioned in abdominal under light general anesthesia with sevoflurane. Puncture between L4-L5 was performed with low diameter needle (29 G) and LPSF-PT-31, GIRSUPAN was injected at dose of 20, 40, 80 or 160 μg diluted in constant volume of 50 μl. Sevoflurane was the elected anesthetic due to low blood solubility causing a fast induction and recovery of anesthesia.
Thus, the animals were completely recovered few minutes after punction and injection LPSF-PT-31, GIRSUPAN and AA activity started to measure from 10 minutes. […] The maximal analgesic effect measured by Hot Plate was ca. 40% sustained by 180 minutes. This intensity of analgesic effect is observed with alpha-2 adrenoceptor agonist as clonidine.

Wistar male rats [3] = experiment: Activity on cardiovascular system: blood pressure and EKG recording in awake animals; conditions: 10 mg/kg single dose through external jugular vein
Method: Hypotension and reduction of heart rate are the major concern of alpha-2 adrenoceptor agonist as clonidine. These effects are justified by decreasing the central nervous system sympathetic outflow due to activation of alpha-2 adrenoceptor. With the aim to investigate if LPSF-PT-31, GIRSUPAN could cross the brain barrier and reduces the hemodynamic response, Wistar male rats weighing 230-280 grams were prepared for blood pressure and electrocardiogram (EKG) recording. The heart rate was estimated by analysis of EKG. LPSF-PT-31, GIRSUPAN (10 mg/kg) was injected trough external jugular vein in a single dose in awaked animals. The blood pressure and the heart rate were not changed showing that LPSF-PT-31, GIRSUPAN is a stable compound for the cardiovascular system differently that occurs with clonidine.

male Swiss mice [4] = experiment: Sedative activity by measuring motor activity (Motor Activity Monitor)
Method: The sedative activity of 3-(2-chloro-6-fluoro-benzyl)-imidazolidine-2,4-dione LPSF-PT-31, GIRSUPAN was investigated in male Swiss mice weighting 18-24 grams by measuring the motor activity (Motor Activity Monitor, Letica LE 8811). In this equipment the animals are positioned in an open square field and a set of invisible beans cross the field. The interruption of the beans was used to quantify the motor activity. After a period of adaptation the motor activity of the animals was measured during 20 min.
Decrease of motor activity represents reduction of brain activity and this observation is useful to investigate the effect of drug with sedative, hipnotic, anxyolitic and general anesthetic properties (Bioorg. Med. Chem. 2006, 14:632-640). Thus, measurement of motor activity is not a method to identify a specific group of pharmacological class.

male Swiss mice [5] = experiment: Hot Plate Test, analgesic activity (% AA) after i.p. administration
Method: The activity of several compounds with action in central nervous system as opioids, which the main drug is morphine, and the alpha-2 adrenoceptor agonist as clonidine have been identified by this method.
The analgesic activity of LPSF-PT-31, GIRSUPAN was investigated in male Swiss mice weighting 18-24 grams using the Hot Plate Test method (Brain Res. 1983, 245-252). The animals were positioned on a hot plate stabilized at 52° C. using the equipment Analgesic Meter-Letica LE 7406. When the pain threshold was achieved the animals raised and licked the front paw to cool down the temperature. The time between positioning the animals on the plate and lick the paw was the latency of the pain reaction. The maximal time (cut-off) allowed to the animals staying on the hot plate was three times the latency time measured on the control. The cut-off was very important to avoid skin damage of the paw.
The analgesic effect of the tested compounds was converted to a unit denominated analgesic activity (% AA) (Brain Res. 1983, 245-252) calculated by equation % AA=((post-drug latency)−(control latency))/((cut off)−(control latency))×100. The experimental protocol used to test the analgesic effect of the compound LPSF-PT-31, GIRSUPAN, consisted to measure the AA in the control condition (before drug administration) and after (i.p.) intraperitoneal administration of increasing dose (1, 5, 10 and 15 mg·kg^−1).
In another experimental group, dimethyl sulfoxide used as vehicle for diluting LPSF-PT-31, GIRSUPAN, was i.p. administered at same volume used for the tested drug. The AA was measured until complete recovery to the control condition.

**Q.** What does the source list for `O=C1CNC(=O)N1Cc1c(F)cccc1Cl` [LPSF-PT-31, 3-(2-chloro-6-fluoro-benzyl)-imidazolidine-2,4-dione]?
**A.** type of interaction with morphine (isobolographic analysis of DE50) (male Swiss mice [1]): strong synergic interaction; duration of maximal analgesic effect (Wistar male rats [2]; intrathecal): 180 min; maximal analgesic effect measured by Hot Plate (Wistar male rats [2]; intrathecal): ca. 40%; effect on pain reaction after intrathecal administration (Wistar male rats [2]; intrathecal 20, 40, 80 or 160 μg in 50 μl, FIG. 4): reduces the pain reaction after intrathecal administration in a dose-dependent manner; blood pressure (Wistar male rats [3]): not changed; heart rate (estimated by analysis of EKG) (Wistar male rats [3]): not changed; reduction of motor activity (male Swiss mice [4]; 10 mg·kg^−1, motor activity measured during 20 min, FIG. 5): ca. 80%; intensity of motor activity reduction versus positive control (male Swiss mice [4]; 10 mg·kg^−1, positive control midazolam, FIG. 5): comparable to midazolam; reversal of decrease of motor activity by yohimbine (male Swiss mice [4]; yohimbine): completely reversed; maximal effect (% AA) (male Swiss mice [5]; 15 mg·kg^−1 i.p.): about 80 % AA; duration of plateau of analgesic effect (male Swiss mice [5]; i.p.): 40 to 50 min; time of peak of analgesic effect (male Swiss mice [5]; i.p.): approximately 20 min; time to complete recovery from the analgesic effect (male Swiss mice [5]; i.p.): 100 to 120 min; effect on % AA (analgesic activity) (male Swiss mice [5]; i.p. 1, 5, 10 and 15 mg·kg^−1, hot plate 52° C., FIG. 1): increased the % AA in a dose-dependent manner; reversal of analgesic effect by naloxone (antagonist of opioid receptor) (male Swiss mice [5]; naloxone 1 mg·kg^−1 i.p.): partially reversed; reversal of analgesic effect by flumazenil (antagonist of benzodiazepine receptor) (male Swiss mice [5]; previous treatment with flumazenil 0.3 mg·kg^−1): not reversed; reversal of analgesic effect by yohimbine (antagonist of alpha-2 adrenoceptor) (male Swiss mice [5]; yohimbine 5 mg·kg^−1 i.p., compound 10 mg·kg^−1, FIG. 2): completely reversed
